In patent publication US10660933B2, “Compositions and methods for inhibition of bacterial infections in human endocervix” (priority 2015, dated 2020):

Legend:
[1] = tested on: Neisseria gonorrhoeae MS11; assay: Ng adherence, invasion, and transmigration assays on polarized epithelial cells; assay type: cell-based; settings: for transmigration of MS11ΔOpa across the polarized T84 monolayer / Ng invasion into polarized T84 cells (gentamicin resistance): 6 h; for transmigration of MS11ΔOpa across the polarized T84 monolayer: ML-7 10 μM, PIK 100 μM, 2APB 10 μM, Y27632 10 μM; for Ng adherence to polarized T84 cells / Ng invasion into polarized T84 cells (gentamicin resistance): MS11ΔOpa, with inhibitors; for Ng adherence to polarized T84 cells: 3 h
Experimental: Ng adherence, invasion, and transmigration assays. The assays were performed as previously described. Briefly, polarized epithelial cells that were pretreated with or without the inhibitors for 1 h were incubated apically with Ng at 37° C. for 3 h for adherence and 6 h for invasion and transmigration assays with or without the inhibitors. Ng in the basolateral media were cultured and counted as transmigrated bacteria. Cells were washed and lysed to count adherent Ng. Cells were treated with gentamicin, washed, and lysed to count bacteria that were resistant to gentamicin treatment as invaded Ng.

[2] = tested on: phosphorylated myosin light chain (pMLC); assay: pMLC (active NMII) redistribution in Ng-inoculated polarized T84 cells (3D-CFM); assay type: cell-based, human; settings: for accumulation of pMLC at Ng adherent sites / apical:lateral FIR of pMLC: polarized T84, Ng 6 h; for junction:non-junction FIR of pMLC: polarized T84, Ng 6 h (Y27632: MS11ΔOpa); for junction:non-junction FIR of pMLC / apical:lateral FIR of pMLC: ML-7 10 μM, PIK 100 μM, Y27632 10 μM, 2APB 10 μM, BAPTA 50 μM
Experimental: Ng induce and Opa suppresses the redistribution of active non-muscle myosin II in polarized and endocervical epithelial cells. […] We examined the cellular distribution of active NMII after 6-h incubation with Ng, using antibody specific for phosphorylated myosin light chain (pMLC) and 3D-CFM. In uninfected polarized T84 (FIGS. 5A and 5C) and HEC-1-B cells (FIG. 10), pMLC was primarily localized at the apical junction. The polarized distribution of pMLC at the apical surface was quantified by the FIR of pMLC at the apical to the lateral (Apical:Lateral) membrane areas in individual cells using CFM images scanning across the apical and basolateral surfaces (FIGS. 5A and 5B). The polarized distribution pMLC at the apical junction was quantified by the FIR of pMLC at the junction to non-junction (Junction:Non-junction) areas of the apical region using CFM images scanning through the apical junction (FIGS. 5C and 5D). The apical inoculation of MS11Opa+ and MS11ΔOpa caused significant increases in apical:lateral FIR in both polarized T84 (FIGS. 5A and 5B) and HEC-1-B cells (FIG. 10), compared to the no Ng control. There were also significant increases in the junction:non-junction FIR in infected polarized T84 cells, compared to non-infected cells (FIGS. 5C and 5D). […] We further noticed that NMII at the apical surface appeared to accumulate at Ng adherent sites (FIG. 5A, middle panels, arrows).
(§1) Immunofluorescence analysis of polarized epithelial cells. Cells were pretreated with or without NMII kinase inhibitors, Y27632 (10 μM, EMD Millipore), ML-7 (10 μM, EMD Millipore) and PIK (100 μM) or Ca2+ inhibitors, 2APB (10 μM, EMD Millipore) and BAPTA (50 μM, EMD Millipore) for 1 h, and incubated with Ng in the presence or absence of the inhibitors for 6 h. Cell were washed and fixed with 4% paraformaldehyde, permeabilized with 1% Triton X100, and stained with anti-E-cadherin (BD Bioscience), anti-pMLC (Cell Signaling Technology, Carlsbad, Calif.), anti-Ng antibodies, and DAPI for nuclei. Cells were analyzed by CFM. Images were acquired as Z-series of 0.37 μm slices, and 3D composites obtained. Epithelial exfoliation will be quantified using xz images as described for the tissue explants. The distribution of E-cadherin and pMLC was quantitatively analyzed by measuring the FIR at the apical junctional to the cytoplasmic area (from xy images) or at the apical to lateral surface area (from xz images) in individual cells.

polarized T84 cells [3] = assay: Fence function of the apical junction (CellMask) in polarized T84 cells; assay type: cell-based, human; settings: polarized T84, Ng-inoculated; ML-7 10 μM, 2APB 10 μM
Experimental: Ng-induced junctional disassembly leads to a significant increase in the lateral diffusion between the apical and basolateral membrane but not in the permeability of epithelial monolayers. To determine whether Opa, MLCK and Ca^2+ flux are involved in this functional alteration of the apical junction, we stained the basolateral surface of polarized T84 epithelial cells exclusively with CellMask dye for […], after apical incubation with fluorescently labeled Ng for 6 h. The appearance of basolaterally stained CellMask dye in the apical membrane indicates a decrease in the fence function of the apical junction (FIG. 4D). […] The percentage of cells with basolaterally labeled CellMask reaching the apical surface increased to 19.4% when MS11Opa+ was inoculated and to 62.2% when MS11ΔOpa was inoculated (FIGS. 4E and 4F).
Fence functional of the apical junction. Polarized T84 cells were incubated with Ng apically for 6 h. Then the cells were incubated with the CellMask dye (5 μg/ml, Life Technologies) in the basolateral chamber only for 15 min, and xz images were acquired using Leica TCS SP5X confocal microscope (Leica Microsystems, Buffalo Grove, Ill.). The number of epithelial cells displaying CellMask staining at the apical membrane was countered visually as the percentage of the total number of epithelial cells in each randomly acquired image.

polarized T84 cells [4] = assay: Ng-induced exfoliation of polarized T84 monolayers (3D-CFM); assay type: cell-based, human; settings: MS11ΔOpa, 6 h; inhibitor 1 h before and during; ML-7 10 μM, PIK 100 μM, Y27632 10 μM, 2APB 10 μM
Description: To quantify epithelial exfoliation, the number of Ng associated cells localized on the top of the epithelial monolayer (exfoliated) and the total number of Ng associated epithelial cells was counted by visual inspection in each randomly acquired image, to determine the percentage of exfoliated cells. To estimate the level of Ng penetration into the subepithelium, the number of non-exfoliated epithelial cells (in clearly visible epithelial monolayers) with basal Ng staining and the total number of Ng associated epithelial cells were visually counted to calculate the percentage of infected epithelial cells with Ng penetration into the basolateral side. To evaluate the disruption of the apical junction, the number of Ng associated epithelial cells that lost continuously apical staining of the junctional protein ZO1 and the total number of Ng associated epithelial cells were visually counted to calculate the percentage of Ng associated epithelial cells with apical junction disassembly. To quantify the redistribution of pMLC, the fluorescence intensity ratios (FIR) of pMLC staining at the apical to lateral in individual epithelial cells were determined using average FI as previously described.
as §1

SMILES | transmigration of MS11ΔOpa across the polarized T84 monolayer [1] | Ng adherence to polarized T84 cells [1] | Ng invasion into polarized T84 cells (gentamicin resistance) [1] | accumulation of pMLC at Ng adherent sites [2] | junction:non-junction FIR of pMLC [2] | apical:lateral FIR of pMLC [2] | percentage of epithelial cells with CellMask staining leaked to the apical surface (polarized T84 cells [3]) | exfoliation of MS11ΔOpa-infected epithelial cells from T84 monolayers (polarized T84 cells [4])
NCCOB(c1ccccc1)c1ccccc1 [2APB] | significantly reduced the transmigration | none of these inhibitors had any significant effect | none of these inhibitors had any significant effect | decreased | decreased | decreased | significantly lowered the percentage of epithelial cells with the CellMark staining leaked to the apical surface | reduced the exfoliation of polarized T84 cells to the level similar to ML-7 and PIK
O=S(=O)(c1cccc2c(I)cccc12)N1CCCNCC1 [ML-7] | significantly reduced the transmigration | none of these inhibitors had any significant effect | none of these inhibitors had any significant effect | significantly reduced | significantly reduced | significantly reduced | significantly lowered the percentage of epithelial cells with the CellMark staining leaked to the apical surface | reduced the exfoliation
